Measurements reported in publication PMC12073298, “Design, Synthesis, and Biological Evaluation of Naphthoquinone Salts as Anticancer Agents” (Molecules, 2025).
Where two headings read alike, the source gives them in different places.

Legend:
[1] = system: human endometrial cancer cells (HEC1A); conditions: previous study, cited from earlier work
[2] = system: human endometrial cancer cells (HEC1A); test: MTT cell viability assay, HEC1A cells; format: cell-based; conditions: for IC50: 48 h, HEC1A cells, MTT, n = 3 biological replicates, read-out: Mean IC50 (μM) HEC1A ± SD; for Selectivity Ratio: IC50 value from MAD11 cells divided by the IC50 value from HEC1A cells
Method: (§1) The cytotoxic effects of the synthesized salt compounds were assessed against human endometrial cancer cells (HEC1A) and normal endometrial stromal cells (MAD11) using the MTT cell viability assay. BH10 was used as the reference compound.
(§2) Reagents and equipment: phosphate-buffered saline (PBS) (Sigma Aldrich, St. Louis, MO, USA), 10× Trypsin-EDTA solution (Sigma Aldrich, 59418C), Dulbecco’s Modified Eagle’s Medium (Sigma Aldrich), foetal bovine serum (FBS), and 100× penicillin-streptomycin solution (Sigma Aldrich P4333). The MTT reagent was prepared by dissolving 5 mg/mL MTT powder in sterile PBS, followed by filtration, whereas the MTT solvent contained 4 mM HCl and 0.1% Nonidet P-40 in isopropanol. Dimethyl sulfoxide (DMSO) was also sourced from Sigma Aldrich. Absorbance measurements were acquired using Kaleido 1.0 software coupled with an EnSight™ HH3400 Multimode Plate Reader (PerkinElmer, Waltham, MA, USA). HEC-1-A endometrial cancer cells were obtained from ATCC, while MAD11 endometrial stromal cells were provided by Dr. Hui Li (University of Virginia). MAD11 cells, derived from non-cancerous donors, were immortalized via human telomerase reverse transcriptase (hTERT).
(§3) Method: The methods were adapted from Byrne et al. (2014). Cells were cultured in DMEM supplemented with 10% FBS and 1% Pen-Strep solution (100 U/mL penicillin and 0.1 mg/mL streptomycin). Upon reaching ~70% confluence, the cells were washed with sterile PBS and detached using a 1× trypsin-EDTA solution. The cells were then resuspended in culture media, counted, and seeded into sterile 96-well tissue culture plates (2500 cells per well for MAD11; 5000 cells per well for HEC-1-A). The cells were incubated at 37 °C with 5% CO2 for 24 h prior to drug treatment. Drugs were serially diluted in culture medium to final concentrations of 100, 50, 25, 12.5, 6.3, 3.1, 1.6, and 0.8 µM per well and applied in triplicate. For compounds 7a–f and 15, as their IC₅₀ values were below 0.8 µM, an additional set of three biological replicates was conducted using a lower concentration range (500, 250, 125, 63, 31, 16, 8, and 4 nM). To minimize variations due to DMSO (vehicle), both drug dilutions and control wells received the same final concentration of DMSO. After 48 h of incubation at 37 °C with 5% CO2, cell viability was assessed by adding 20 µL/well of MTT reagent for 3 h. Supernatants were aspirated, and formazan crystals were dissolved in MTT solvent before absorbance was measured at 590/620 nm using an EnSight™ HH3400 Multimode Plate Reader. Cell viability was expressed as a percentage of the vehicle (DMSO-treated) control, with results reported as mean ± SEM from three independent experiments. IC50 values were determined using GraphPad Prism 9.

[3] = system: normal endometrial stromal cells (MAD11); test: MTT cell viability assay, MAD11 cells; format: cell-based, human; conditions: MAD11 non-cancerous cells, n = 3 biological replicates, read-out: Mean IC50 (μM) MAD11 ± SD
Method: as §1, §2, §3

[4] = cell line not printed here, read-out: IC50 (anticancer potency of starting materials)
[5] = non-salt parent compounds, read-out: IC50 of parent naphthoimidazole analogues

In the case of `O=C1C=C(NCCN2CCOCC2)C(=O)c2ccccc21` [Compound 1a], the IC50 [1, 4] is given as > 40 µM.

In the case of `CC1=C(NCCN2CCOCC2)C(=O)c2ccccc2C1=O` [Compound 1h], the IC50 [1, 4] is listed as > 40 µM.

In the case of `C[N+]1(CCNC2=CC(=O)c3ccccc3C2=O)CCOCC1.[I-]` [Compound 2a, 4-(2-((1,4-Dioxo-1,4-dihydronaphthalen-2-yl)amino)ethyl)-4-methylmorpholin-4-ium iodide], the IC50 ([2]; Homo sapiens, HEC-1-A) is reported as 21.1 ± 2.99 µM, the “Selectivity Ratio” value [2] is reported as >4.73 and the IC50 ([3]; Homo sapiens, MAD11, 48 h) is reported as > 100 µM.

For `C[N+]1(CCCNC2=CC(=O)c3ccccc3C2=O)CCCCC1` [Compound 2b, 1-(3-((1,4-Dioxo-1,4-dihydronaphthalen-2-yl)amino)propyl)-1-methylpiperidin-1-ium iodide], the IC50 ([2]; Homo sapiens, HEC-1-A) was > 100 µM and the IC50 ([3]; Homo sapiens, MAD11, 48 h) was > 100 µM.

With `C[N+](C)(C)CCNC1=C(Cl)C(=O)c2ccccc2C1=O` [Compound 2c, 2-((3-Chloro-1,4-dioxo-1,4-dihydronaphthalen-2-yl)amino)-N,N,N-trimethylethan-1-aminium iodide] the IC50 ([2]; Homo sapiens, HEC-1-A) was 97.2 ± 8.2 µM and the IC50 ([3]; Homo sapiens, MAD11, 48 h) was > 100 µM.

In the case of `C[N+]1(CCNC2=C(Cl)C(=O)c3ccccc3C2=O)CCCCC1.[I-]` [Compound 2d, 1-(2-((3-Chloro-1,4-dioxo-1,4-dihydronaphthalen-2-yl)amino)ethyl)-1-methylpiperidin-1-ium iodide], the IC50 ([2]; Homo sapiens, HEC-1-A) is reported as 58.8 ± 3.01 µM, the “Selectivity Ratio” value [2] is reported as >1.70 and the IC50 ([3]; Homo sapiens, MAD11, 48 h) is reported as > 100 µM.

In the case of `C[N+](C)(C)CCCNC1=C(Cl)C(=O)c2ccccc2C1=O` [Compound 2e, 3-((3-Chloro-1,4-dioxo-1,4-dihydronaphthalen-2-yl)amino)-N,N,N-trimethylpropan-1-aminium iodide], the IC50 ([2]; Homo sapiens, HEC-1-A) is reported as > 100 µM and the IC50 ([3]; Homo sapiens, MAD11, 48 h) is reported as > 100 µM.

For `C[N+]1(CCCNC2=C(Cl)C(=O)c3ccccc3C2=O)CCOCC1` [Compound 2f, 4-(3-((3-Chloro-1,4-dioxo-1,4-dihydronaphthalen-2-yl)amino)propyl)-4-methylmorpholin-4-ium iodide], the IC50 ([2]; Homo sapiens, HEC-1-A) was > 100 µM and the IC50 ([3]; Homo sapiens, MAD11, 48 h) was > 100 µM.

With `C[N+]1(CCNC2=C(Br)C(=O)c3ccccc3C2=O)CCOCC1.[I-]` [Compound 2g, 4-(2-((3-Bromo-1,4-dioxo-1,4-dihydronaphthalen-2-yl)amino)ethyl)-4-methylmorpholin-4-ium iodide] the IC50 ([2]; Homo sapiens, HEC-1-A) was 23.8 ± 4.17 µM, the “Selectivity Ratio” value [2] was >4.20 and the IC50 ([3]; Homo sapiens, MAD11, 48 h) was > 100 µM.

With `CC1=C(NCC[N+]2(C)CCOCC2)C(=O)c2ccccc2C1=O` [Compound 2h, 4-Methyl-4-(2-((3-methyl-1,4-dioxo-1,4-dihydronaphthalen-2-yl)amino)ethyl)morpholin-4-ium iodide] the IC50 ([2]; Homo sapiens, HEC-1-A) was 95.5 ± 14.7 µM and the IC50 ([3]; Homo sapiens, MAD11, 48 h) was > 100 µM.

With `Cc1n(C)c2c([n+]1C)C(=O)c1ccccc1C2=O.[Br-]` [Compound 7a, 1,2,3-Trimethyl-4,9-dioxo-4,9-dihydro-1H-naphtho [2,3-d]imidazol-3-ium bromide] the IC50 ([2]; Homo sapiens, HEC-1-A) was 0.00953 ± 0.0007 µM, the “Selectivity Ratio” value [2] was 6.89 and the IC50 ([3]; 48 h) was 0.0657 ± 0.00641 µM.

In the case of `Cc1n(C)c2c([n+]1C)C(=O)c1c(cccc1[N+](=O)[O-])C2=O.[Br-]` [Compound 7b, 1,2,3-Trimethyl-5-nitro-4,9-dioxo-4,9-dihydro-1H-naphtho [2,3-d]imidazol-3-ium bromide], the IC50 ([2]; Homo sapiens, HEC-1-A) is reported as 0.023 ± 0.0033 µM, the “Selectivity Ratio” value [2] is reported as 41.43 and the IC50 ([3]; Homo sapiens, MAD11, 48 h) is reported as 0.952 ± 0.215 µM.

In the case of `Cc1n(C)c2c([n+]1C)C(=O)c1cc([N+](=O)[O-])ccc1C2=O.[Br-]` [Compound 7c, 1,2,3-Trimethyl-6-nitro-4,9-dioxo-4,9-dihydro-1H-naphtho [2,3-d]imidazol-3-ium bromide], the IC50 ([2]; Homo sapiens, HEC-1-A) is reported as 0.0288 ± 0.0014 µM, the “Selectivity Ratio” value [2] is reported as 2.37 and the IC50 ([3]; Homo sapiens, MAD11, 48 h) is reported as 0.0685 ± 0.0061 µM.

With `COc1ccc2c(c1)C(=O)c1c(n(C)c(C)[n+]1C)C2=O` [Compound 7d, 6-Methoxy-1,2,3-trimethyl-4,9-dioxo-4,9-dihydro-1H-naphtho [2,3-d]imidazol-3-ium bromide] the IC50 ([2]; Homo sapiens, HEC-1-A) was 0.0256 ± 0.0021 µM and the IC50 ([3]; Homo sapiens, MAD11, 48 h) was 0.194 ± 0.0191 µM.

In the case of `Cc1ccc2c(c1)C(=O)c1c([n+](C)c(C)n1C)C2=O` [Compound 7e, 1,2,3,7-Tetramethyl-4,9-dioxo-4,9-dihydro-1H-naphtho [2,3-d]imidazol-3-ium bromide], the IC50 ([2]; Homo sapiens, HEC-1-A) is reported as 0.0149 ± 0.0012 µM and the IC50 ([3]; Homo sapiens, MAD11, 48 h) is reported as 0.101 ± 0.0124 µM.

In the case of `Cc1n(C)c2c([n+]1C)C(=O)c1ccncc1C2=O.[Br-]` [Compound 7f, 1,2,3-Trimethyl-4,9-dioxo-4,9-dihydro-3H-imidazo [4,5-g]isoquinolin-1-ium bromide], the “loss in potency relative to 7a” value ([2]; Figure 3, SAR summary) is reported as ~ 50 fold, the IC50 ([2]; Homo sapiens, HEC-1-A) is reported as 0.472 ± 0.0378 µM and the “Selectivity Ratio” value [2] is reported as 10.16. For the same compound, the IC50 ([3]; Homo sapiens, MAD11, 48 h) was 4.8 ± 0.327 µM.

With `Cc1n(C)c2cc3ccccc3cc2[n+]1C.[I-]` [Compound 9, 1,2,3-Trimethyl-1H-naphtho [2,3-d]imidazol-3-ium iodide] the IC50 [2] was 23.9 ± 2.97 µM, the IC50 ([2]; Homo sapiens, HEC-1-A) was 24.9 µM and the “Selectivity Ratio” value [2] was 2.70. The IC50 ([3]; Homo sapiens, MAD11, 48 h) was 64.6 ± 14 µM.

In the case of `Cc1n(C)c2ccccc2[n+]1C` [Compound 11, 1,2,3-Trimethyl-1H-benzo[d]imidazol-3-ium iodide], the IC50 ([2]; Homo sapiens, HEC-1-A) is reported as > 100 µM and the IC50 ([3]; Homo sapiens, MAD11, 48 h) is reported as > 100 µM.

For `Cn1c[n+](C)c2ccccc21` [Compound 13, 1,3-Dimethyl-1H-benzo[d]imidazol-3-ium iodide], the IC50 ([2]; Homo sapiens, HEC-1-A) was > 100 µM and the IC50 ([3]; Homo sapiens, MAD11, 48 h) was > 100 µM.

In the case of `Cc1n(C)c2c([n+]1C)C(=O)c1ccccc1C2=O.[I-]` [Compound 15, 1,2,3-Trimethyl-4,9-dioxo-4,9-dihydro-1H-naphtho [2,3-d]imidazol-3-ium iodide], the IC50 [2] is reported as 0.0135 ± 0.0009 µM, the “Selectivity Ratio” value [2] is reported as 11.43 and the IC50 ([3]; 48 h) is reported as 0.154 ± 0.0109 µM.

For `O=C1c2ccccc2C(=O)c2c1nc(C(F)(F)F)n2Cc1cn(CCN2CCOCC2)nn1` [Compound 16a], the “selectivity of parent naphthoimidazole analogues” value ([1]; non-salt parent compounds) is given as 1.73 and the IC50 [1, 5] is given as 18.1 µM.

In the case of `O=C1c2ccccc2C(=O)c2c1nc(C(F)(F)F)n2Cc1cn(CCN2CCCCC2)nn1` [Compound 16b], the “selectivity of parent naphthoimidazole analogues” value ([1]; non-salt parent compounds) is given as 2.01.

In the case of `O=C1c2ccccc2C(=O)c2c1nc(C(F)(F)F)n2Cc1cn(CCCN2CCCCC2)nn1` [Compound 16c], the “selectivity of parent naphthoimidazole analogues” value ([1]; non-salt parent compounds) is given as 2.77 and the IC50 [1, 5] is given as 2.6 µM.

For `C[N+]1(CCn2cc(Cn3c(C(F)(F)F)nc4c3C(=O)c3ccccc3C4=O)nn2)CCOCC1.[I-]` [Compound 17a, 4-(2-(4-((4,9-Dioxo-2-(trifluoromethyl)-4,9-dihydro-1H-naphtho [2,3-d]imidazol-1-yl)methyl)-1H-1,2,3-triazol-1-yl)ethyl)-4-methylmorpholin-4-ium iodide], the IC50 ([2]; Homo sapiens, HEC-1-A) was 11.2 ± 2.63 µM, the “Selectivity Ratio” value [2] was 9.93 and the IC50 ([3]; Homo sapiens, MAD11, 48 h) was 111 ± 45 µM.

With `C[N+]1(CCn2cc(Cn3c(C(F)(F)F)nc4c3C(=O)c3ccccc3C4=O)nn2)CCCCC1.[I-]` [Compound 17b, 1-(2-(4-((4,9-Dioxo-2-(trifluoromethyl)-4,9-dihydro-1H-naphtho [2,3-d]imidazol-1-yl)methyl)-1H-1,2,3-triazol-1-yl)ethyl)-1-methylpiperidin-1-ium iodide] the IC50 ([2]; Homo sapiens, HEC-1-A) was 6.79 ± 1 µM, the “Selectivity Ratio” value [2] was >14.73 and the IC50 ([3]; Homo sapiens, MAD11, 48 h) was > 100 µM.

With `C[N+]1(CCCn2cc(Cn3c(C(F)(F)F)nc4c3C(=O)c3ccccc3C4=O)nn2)CCCCC1.[I-]` [Compound 17c, 1-(3-(4-((4,9-Dioxo-2-(trifluoromethyl)-4,9-dihydro-1H-naphtho [2,3-d]imidazol-1-yl)methyl)-1H-1,2,3-triazol-1-yl)propyl)-1-methylpiperidin-1-ium iodide] the IC50 ([2]; Homo sapiens, HEC-1-A) was 5.62 ± 1.43 µM, the “Selectivity Ratio” value [2] was >17.79 and the IC50 ([3]; Homo sapiens, MAD11, 48 h) was > 100 µM.

For `Cc1nc2c(n1CCCN1CCCCC1)C(=O)c1ccccc1C2=O` [Compound 18], the “selectivity of parent naphthoimidazole analogues” value ([1]; non-salt parent compounds) is listed as 3.59 and the IC50 [1, 5] is listed as 6.4 µM.

For `Cc1nc2c(n1CCC[N+]1(C)CCCCC1)C(=O)c1ccccc1C2=O.[I-]` [Compound 19, 1-Methyl-1-(3-(2-methyl-4,9-dioxo-4,9-dihydro-1H-naphtho [2,3-d]imidazol-1-yl)propyl) piperidin-1-ium iodide], the IC50 ([2]; Homo sapiens, HEC-1-A) was 6.35 ± 1.41 µM, the “Selectivity Ratio” value [2] was 6.42 and the IC50 ([3]; Homo sapiens, MAD11, 48 h) was 40.8 ± 14.1 µM.
